Target: T1, Human GLP-1 receptor (Homo sapiens, UniProt P43220)
T1 construct: expressed in transfected cells
Assay: Measurement of GLP-1 receptor agonist activity (cAMP assay)
Assay type: cell-based
Conditions: cAMP increase in GLP-1 R/CHO-K1 cells, 2 nM human GLP-1 (7-36) = 100%, DMSO only = 0%; for Emax: CHO-K1, maximum effect, read-out: Emax
Method in brief: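 Agonism measured as cAMP accumulation by time-resolved FRET immunoassay in CHO-K1 cells stably expressing human GLP-1 receptor. Cells treated for 1 h at 37 °C with compound and forskolin (400 μM stock), in buffer containing the PDE inhibitors IBMX (0.1 mM) and RO20-1724 (0.2 mM).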

T1 sequence (P43220 24-463): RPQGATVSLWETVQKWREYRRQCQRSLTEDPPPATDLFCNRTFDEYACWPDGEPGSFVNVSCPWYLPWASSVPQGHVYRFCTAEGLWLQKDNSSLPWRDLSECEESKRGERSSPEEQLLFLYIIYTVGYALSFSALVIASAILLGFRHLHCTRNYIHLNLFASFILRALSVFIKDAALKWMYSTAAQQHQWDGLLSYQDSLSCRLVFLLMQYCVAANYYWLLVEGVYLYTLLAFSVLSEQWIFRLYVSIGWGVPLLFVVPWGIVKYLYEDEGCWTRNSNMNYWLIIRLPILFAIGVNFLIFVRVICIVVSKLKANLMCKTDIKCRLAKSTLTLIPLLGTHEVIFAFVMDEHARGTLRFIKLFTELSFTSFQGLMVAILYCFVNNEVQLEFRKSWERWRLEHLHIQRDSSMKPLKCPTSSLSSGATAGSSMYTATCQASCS

SMILES | Emax [%] | EC50 [nM]
C[C@H]1c2cc(OCc3ccc(Cl)cc3Cl)c(Cl)cc2CCN1Cc1nc2ccc(C(=O)O)nc2n1C[C@@H]1CCO1 [Compound I-316] | 117 | 1.66
Cc1ccc(COc2cc3c(cc2Cl)CCN(Cc2nc4ccc(C(=O)O)c(F)c4n2C[C@@H]2CCO2)[C@H]3C)cc1 [Compound I-317] | 97.7 | 2.56
COc1ccc(COc2cc3c(cc2Cl)CCN(Cc2nc4ccc(C(=O)O)c(F)c4n2C[C@@H]2CCO2)[C@H]3C)cc1 [Compound I-318] | 91.3 | 4.55
C[C@H]1c2cc(OCc3ccc(Cl)cc3)c(Cl)cc2CCN1Cc1nc2ccc(C(=O)O)c(F)c2n1C[C@@H]1CCO1 [Compound I-319] | 95.3 | 2.43
C[C@H]1c2cc(OCc3ccc(Cl)cn3)c(Cl)cc2CCN1Cc1nc2ccc(C(=O)O)c(F)c2n1C[C@@H]1CCO1 [Compound I-320] | 90.3 | 1.63
C[C@H]1c2cc(OCc3ccc(C4CC4)cc3)c(Cl)cc2CCN1Cc1nc2ccc(C(=O)O)c(F)c2n1C[C@@H]1CCO1 [Compound I-321] | 84 | 9.85
C[C@H]1c2cc(OCc3ccccc3Cl)c(Cl)cc2CCN1Cc1nc2ccc(C(=O)O)c(F)c2n1C[C@@H]1CCO1 [Compound I-322] | 89 | 3.51
C[C@H]1c2cc(OCc3ccc(F)cc3F)c(Cl)cc2CCN1Cc1nc2ccc(C(=O)O)c(F)c2n1C[C@@H]1CCO1 [Compound I-323] | 101 | 1.7
C[C@H]1c2cc(OCc3ccc(Cl)cc3F)c(Cl)cc2CCN1Cc1nc2ccc(C(=O)O)c(F)c2n1C[C@@H]1CCO1 [Compound I-324] | 100 | 0.466
C[C@H]1c2cc(OCc3ccc(Cl)cc3Cl)c(Cl)cc2CCN1Cc1nc2ccc(C(=O)O)c(F)c2n1C[C@@H]1CCO1 [Compound I-325] | 105 | 0.655
C[C@H]1c2cc(OCc3cc(F)c(Cl)cc3F)c(Cl)cc2CCN1Cc1nc2ccc(C(=O)O)c(F)c2n1C[C@@H]1CCO1 [Compound I-326] | 109 | 1.31
C[C@H]1c2cc(OCc3ccc(OC(F)F)cc3F)c(Cl)cc2CCN1Cc1nc2ccc(C(=O)O)c(F)c2n1C[C@@H]1CCO1 [Compound I-327] | 100 | 1.06
C[C@H]1c2cc(OCc3c(F)cc(F)cc3F)c(Cl)cc2CCN1Cc1nc2ccc(C(=O)O)c(F)c2n1C[C@@H]1CCO1 [Compound I-328] | 87.3 | 1.73
C[C@H]1c2cc(OCc3c(F)cc(Cl)cc3F)c(Cl)cc2CCN1Cc1nc2ccc(C(=O)O)c(F)c2n1C[C@@H]1CCO1 [Compound I-329] | 96.7 | 1.16
Cc1ccc(COc2cc3c(cc2Cl)CCN(Cc2nc4c(F)cc(C(=O)O)cc4n2C[C@@H]2CCO2)[C@H]3C)cc1 [Compound I-330] | 93 | 1.22
COc1ccc(COc2cc3c(cc2Cl)CCN(Cc2nc4c(F)cc(C(=O)O)cc4n2C[C@@H]2CCO2)[C@H]3C)cc1 [Compound I-331] | 102 | 2.7
C[C@H]1c2cc(OCc3ccc(Cl)cc3)c(Cl)cc2CCN1Cc1nc2c(F)cc(C(=O)O)cc2n1C[C@@H]1CCO1 [Compound I-332] | 105 | 1.38
C[C@H]1c2cc(OCc3ccc(C4CC4)cc3)c(Cl)cc2CCN1Cc1nc2c(F)cc(C(=O)O)cc2n1C[C@@H]1CCO1 [Compound I-333] | 116 | 8.05
COc1cc(Cl)ccc1COc1cc2c(cc1Cl)CCN(Cc1nc3c(F)cc(C(=O)O)cc3n1C[C@@H]1CCO1)[C@H]2C [Compound I-334] | 114 | 0.223

SMILES | Emax [%] | EC50 [nM]
C[C@H]1c2cc(OCc3ccc(F)cc3F)c(Cl)cc2CCN1Cc1nc2c(F)cc(C(=O)O)cc2n1C[C@@H]1CCO1 [Compound I-335] | 98 | 1.23
C[C@H]1c2cc(OCc3ccc(Cl)cc3F)c(Cl)cc2CCN1Cc1nc2c(F)cc(C(=O)O)cc2n1C[C@@H]1CCO1 [Compound I-336] | 100 | 0.696
C[C@H]1c2cc(OCc3ccc(Cl)cc3Cl)c(Cl)cc2CCN1Cc1nc2c(F)cc(C(=O)O)cc2n1C[C@@H]1CCO1 [Compound I-337] | 104 | 0.325
C[C@H]1c2cc(OCc3cc(F)c(Cl)cc3F)c(Cl)cc2CCN1Cc1nc2c(F)cc(C(=O)O)cc2n1C[C@@H]1CCO1 [Compound I-338] | 100 | 1.27
C[C@H]1c2cc(OCc3c(F)cc(Cl)cc3F)c(Cl)cc2CCN1Cc1nc2c(F)cc(C(=O)O)cc2n1C[C@@H]1CCO1 [Compound I-339] | 105 | 0.377
COc1cc(C(=O)O)cc2c1nc(CN1CCc3cc(Cl)c(OCc4ccc(C)cc4)cc3[C@@H]1C)n2C[C@@H]1CCO1 [Compound I-340] | 105 | 0.31
COc1cc(C(=O)O)cc2c1nc(CN1CCc3cc(Cl)c(OCc4ccc(Cl)cc4)cc3[C@@H]1C)n2C[C@@H]1CCO1 [Compound I-341] | 125 | 0.236
COc1cc(C(=O)O)cc2c1nc(CN1CCc3cc(Cl)c(OCc4ccc(C5CC5)cc4)cc3[C@@H]1C)n2C[C@@H]1CCO1 [Compound I-342] | 97.3 | 1.95
COc1cc(Cl)ccc1COc1cc2c(cc1Cl)CCN(Cc1nc3c(OC)cc(C(=O)O)cc3n1C[C@@H]1CCO1)[C@H]2C [Compound I-343] | 111 | 0.063
COc1cc(C(=O)O)cc2c1nc(CN1CCc3cc(Cl)c(OCc4ccc(Cl)cc4F)cc3[C@@H]1C)n2C[C@@H]1CCO1 [Compound I-344] | 110 | 0.0824
COc1cc(C(=O)O)cc2c1nc(CN1CCc3cc(Cl)c(OCc4ccc(Cl)cc4Cl)cc3[C@@H]1C)n2C[C@@H]1CCO1 [Compound I-345] | 129 | 0.096
COc1cc(C(=O)O)cc2c1nc(CN1CCc3cc(Cl)c(OCc4cc(F)c(Cl)cc4F)cc3[C@@H]1C)n2C[C@@H]1CCO1 [Compound I-346] | 117 | 0.354
Cc1ccc(COc2nc3c(cc2C(F)(F)F)CCN(Cc2nc4ccc(C(=O)O)nc4n2C[C@@H]2CCO2)[C@H]3C)cc1 [Compound I-347] | 110 | 0.241
C[C@H]1c2nc(OCc3ccc(Cl)cc3)c(C(F)(F)F)cc2CCN1Cc1nc2ccc(C(=O)O)nc2n1C[C@@H]1CCO1 [Compound I-348] | 129 | 0.206
C[C@H]1c2nc(OCc3ccc(C4CC4)cc3)c(C(F)(F)F)cc2CCN1Cc1nc2ccc(C(=O)O)nc2n1C[C@@H]1CCO1 [Compound I-349] | 117 | 1.27
COc1cc(Cl)ccc1COc1nc2c(cc1C(F)(F)F)CCN(Cc1nc3ccc(C(=O)O)nc3n1C[C@@H]1CCO1)[C@H]2C [Compound I-350] | 113 | 0.0964
C[C@H]1c2nc(OCc3ccc(Cl)cc3Cl)c(C(F)(F)F)cc2CCN1Cc1nc2ccc(C(=O)O)nc2n1C[C@@H]1CCO1 [Compound I-351] | 121 | 0.156
C[C@H]1c2nc(OCc3cc(F)c(Cl)cc3F)c(C(F)(F)F)cc2CCN1Cc1nc2ccc(C(=O)O)nc2n1C[C@@H]1CCO1 [Compound I-352] | 113 | 0.122
Cc1ccc(COc2nc3c(cc2C(F)(F)F)CCN(Cc2nc4ccc(C(=O)O)c(F)c4n2C[C@@H]2CCO2)[C@H]3C)cc1 [Compound I-353] | 115 | 0.0558
